From article PMC6115460, “Extreme amyloid polymorphism in Staphylococcus aureus virulent PSMα peptides” (Nature Communications, 2018)

Tests used:
[1] = Thioflavin T fluorescence fibrillation kinetics assay; settings: 50 µM peptide, 200 µM ThT; Tris buffer pH 7.5 (PSMα1 and mutant) or ultra-pure water (PSMα4 and mutant); 37 °C; about 100 h; mean of triplicates
Experimental: Final concentrations for each reaction were 50 µM peptide (PSMα1, PSMα4, or their mutants) and 200 µM ThT. Blank solutions were also prepared for each reaction, containing everything but the peptides. The reaction mixture was carried out in a black 96-well flat-bottom plate (Greiner bio-one) covered with a thermal seal film (EXCEL scientific) and incubated in a plate reader (CLARIOstar BMG LABTECH) at a temperature of 37 °C with 500 rpm shaking for 85 s before each reading cycle, and up to 1000 cycles of 6 min each. Measurements were made in triplicates. Fluorescence was measured by excitation at 438 ± 20 nm and emission at 490 ± 20 nm over a period of about 100 h. All triplicate values were averaged, appropriate blanks were subtracted, and the resulting values were plotted against time. Calculated standard errors of the mean are presented as error bars. The entire experiment was repeated at least three times on different days.

[2] = Fibril thermal-stability assay (TEM); format: physicochemical; settings: 10 mM (LFKFFK in ultra-pure water, IIKIIK in DMSO), 3 days at room temperature, 50 °C for 5 min, then cooled at room temperature 20 min
Experimental: For the fibril thermal-stability assay (Fig. 5), peptides were dissolved to 10 mM (LFKFFK in ultra-pure water and IIKIIK in DMSO) and incubated at room temperature for 3 days. Samples were applied directly onto copper TEM grids and stained as described above. The samples were then incubated at 50 °C in a pre-heated thermoblock for 5 min and immediately applied onto TEM grids. The samples were then allowed to cool down at room temperature for 20 min and applied onto TEM grids. Micrographs were recorded as described above.

[3] = Fibril formation by transmission electron microscopy; format: physicochemical; settings: negative stain TEM
Experimental: Fibrillated PSMα1 and PSMα4 samples were collected following the ThT fibrillation kinetics assay (as described above) by combining the contents of 2–3 wells from the plate. Solutions were centrifuged at 21,000 × g and the supernatant was discarded. The pellet containing the fibrils was re-suspended in 20 μl of ultra-pure water.
Fibril formation of the short segments, IIKIIK, IIKVIK, LFKFFK and KLFKFFK, was examined for peptides dissolved directly from the powder form. IIKVIK from PSMα1 and IIKIIK from PSMα4 were re-suspended to 20 mM with 75% DMSO in ultra-pure water and incubated for about 1 week at room temperature (Fig. 2b). LFKFFK and KLFKFFK from PSMα3 were re-suspended in ultra-pure water to 10 mM. LFKFFK was incubated for about a month and KLFKFFK was incubated for 14 days at room temperature (Fig. 3b).
Five-microliter samples were applied directly onto copper TEM grids with support films of Formvar/Carbon (Ted Pella), which were charged by glow-discharge (PELCO easiGlow, Ted Pella) immediately before use. Grids were allowed to adhere for 2 min and negatively stained with 5 μl of 2% uranyl acetate solution. Micrographs were recorded using FEI Tecnai G2 T20 S-Twin transmission electron microscope operated at an accelerating voltage of 200 KeV (located at the Department of Materials Science & Engineering at the Technion, Israel), FEI Tecnai G2 T12 TEM operated at an accelerating voltage of 120 kV (located at the Russell Berrie Electron Microscopy Center of Soft Matter at the Technion, Israel). Images were recorded digitally by a Gatan US 1000 CCD camera using the DigitalMicrograph® software.

Staphylococcus aureus = experiment: Disc diffusion assay testing antibacterial activity; format: cell-based; settings: ATCC 25923, peptide 50 mg ml−1 in ultra-pure water loaded on discs, BHI-agar, incubated over-night
Experimental: (§1) Micrococcus luteus (an environmental isolate) was a kind gift from Prof. Charles Greenblatt from the Hebrew university in Jerusalem, Israel. An inoculum was grown in Luria-Bertani (LB) medium at 30 °C with 220 rpm shaking overnight. Staphylococcus hominis (ATTC 27844) and Staphylococcus aureus (ATCC 25923) were purchased from ATCC, USA. An inoculum was grown in brain-heart infusion (BHI) media at 37 °C with 220 rpm shaking overnight.
(§2) Bacterial cultures were grown overnight as described above and diluted 1000-fold to a fresh media until growth reached to optical density of ~0.4 measured at 600 nm (OD600). The refreshed cultures were plated on LB-agar or BHI-agar according to the bacterial strain. The antibacterial activity of PSMα segments was examined: Lyophilized peptides were dissolved in ultra-pure water (LFKFFK and KLFKFFK) or DMSO (IIKVIK and IIKIIK) to a final concentration of 50 mg ml^−1. The concentrated peptide solutions were loaded on blank antimicrobial susceptibility discs (Oxoid, UK). Discs loaded with ultra-pure water or DMSO were used as controls. The discs were gently placed on bacteria plated agar and incubated over-night at the appropriate temperatures.

Micrococcus luteus = experiment: as above; format: cell-based; settings: peptide 50 mg ml−1 in ultra-pure water (LFKFFK, KLFKFFK) or DMSO (IIKVIK, IIKIIK) loaded on discs, LB-agar, incubated over-night, coincides with activity in solution (Supplementary Fig. 4)
Experimental: as §1, §2

Staphylococcus hominis = experiment: as above; format: cell-based; settings: ATTC 27844, peptide 50 mg ml−1 in ultra-pure water (LFKFFK, KLFKFFK) or DMSO (IIKVIK, IIKIIK) loaded on discs, BHI-agar, incubated over-night, coincides with activity in solution (Supplementary Fig. 4)
Experimental: as §1, §2

[4] = 10 mM in ultra-pure water, room temperature, LFKFFK about a month, KLFKFFK 14 days
[5] = 20 mM in 75% DMSO in ultra-pure water, about 1 week at room temperature

Row | Substance | Thioflavin T binding [1] | thermal stability of fibrils [2] | fibril formation, electron micrographs [3, 4] | toxicity to S. aureus (Staphylococcus aureus) | antibacterial activity against M. luteus (Micrococcus luteus) | antibacterial activity against S. hominis (Staphylococcus hominis) | fibril formation, electron micrographs [3, 5]
1 | MGIIAGPIPVIKSLIEQFTGK | no ThT binding |  |  |  |  |  | 
2 | LFKFFK [truncated segment of PSMα3; acetylated N-terminus and amidated C-terminus, or unmodified termini for crystallography] |  | dissolve upon heating to 50 °C, and reform upon cooling | fibrils and nano-crystals | not toxic | dose-dependent antibacterial activity | dose-dependent antibacterial activity | 
3 | IIKVIK [spine segment of PSMα1; acetylated N-terminus and amidated C-terminus, or unmodified termini for crystallography] |  |  |  |  | do not elicit antibacterial activity | do not elicit antibacterial activity | fibrils
4 | IIKIIK [spine segment of PSMα4; acetylated N-terminus and amidated C-terminus, or unmodified termini for crystallography] |  | remain stable |  |  | do not elicit antibacterial activity | do not elicit antibacterial activity | fibrils
5 | KLFKFFK [one-residue longer PSMα3 segment] |  |  | straight and twisted crystalline fibrils | not toxic | dose-dependent antibacterial activity | dose-dependent antibacterial activity | 
6 | MAIVGTIPKPIKAIIDIFAK | no ThT binding |  |  |  |  |  | 
